# From patent publication US20240124451A1, “PHTHALAZINE DERIVATIVES USEFUL AS INHIBITORS OF NOD-LIKE RECEPTOR PROTEIN 3” (Merck Sharp & Dohme LLC, priority 2022, published 2024)
# Target: T1, NLRP3 inflammasome (Homo sapiens, UniProt Q96P20)
# T1 construct: host or cells: THP-1 human monocytic cells, PMA-treated, stimulated with gramicidin
# Assay: ASC-SPECK formation in THP-1 cells after gramicidin stimulation (NLRP3 inflammasome activation)
# Format: cell-based
# Details: PMA-treated human monocytic THP-1 cells, compound 1 h before 12.5 ug/ml gramicidin, 3 h, ASC SPECK imaging; read-out: EC50 (nM) for Examples that inhibit NLRP3 inflammasome activation
# Procedure: The ability of compounds to inhibit NLRP3 inflammasome activation was determined in vitro by monitoring formation of the ASC-SPECK in human monocytic THP-1 cells after stimulation. THP-1 cells (ATCC catalog #TIB-202) were maintained in complete growth media containing Roswell Park Memorial Institute RPMI (ATCC catalog #30-2001), 10% heat inactivated fetal bovine serum, 1× penicillin/streptomycin and 0.05 mM 2-mercaptoethanol. At the start of the assay, undifferentiated THP-1 cells were plated at a density of 20,000 cells per well in a 384-well plate (Poly-D-lysine coated Cell Carrier Ultra microplate, Perkin Elmer catalog #6057500) in complete growth media supplemented with 10 ng/ml phorbol 12-myristate 13-acetate (PMA; Sigma catalog #P8139), and then incubated overnight. The next day, media was replaced with assay media [RPMI (Gibco catalog #11875-093), 0.01% bovine serum albumin (BSA)]. Compounds were serially diluted in DMSO and then added to wells one hour prior to the addition of 12.5 ug/ml Gramicidin (Enzo Lifescience, catalog #ALX-350-233-M005). All incubations were carried out at 37° C. (5% CO2/95% air). Following a 3-hour treatment with gramicidin, cells are fixed with 4% paraformaldehyde and stored at 4° C. until immunofluorescence staining.
# Immunofluorescence staining: Anti-ASC antibody (MBL catalog #D086-3) was desalted and labeled with Alexa 488 antibody labeling kit (Thermo catalog #A20181) prior to use as described below. After fixation, the following steps were carried out at room temperature. Cells were first permeabilized with 0.3% Triton X-100 in phosphate-buffered saline (PBS) for 15 minutes and then incubated in blocking buffer containing 5% goat serum, 0.3% tween-20 and 0.03% sodium azide in PBS for 1 hour. Cells were stained with a mixture of ASC-Alexa 488 antibody (diluted 1:200 in blocking buffer) and nuclear stain DRAQ5 (1:5000 in blocking buffer, Thermo catalog #62251) in blocking buffer for 1 hour. Following a wash with 0.3% Tween-20 in PBS, plates were imaged with an Opera Phenix High Content Screening System. The number of DRAQ5 positive cells containing ASC SPECKS were quantified in each well.
# Data analysis: EC50 values were calculated by standard curve-fitting analysis using an internally developed program in TIBCO Spotfire software.
# T1 sequence (Q96P20 whole entry): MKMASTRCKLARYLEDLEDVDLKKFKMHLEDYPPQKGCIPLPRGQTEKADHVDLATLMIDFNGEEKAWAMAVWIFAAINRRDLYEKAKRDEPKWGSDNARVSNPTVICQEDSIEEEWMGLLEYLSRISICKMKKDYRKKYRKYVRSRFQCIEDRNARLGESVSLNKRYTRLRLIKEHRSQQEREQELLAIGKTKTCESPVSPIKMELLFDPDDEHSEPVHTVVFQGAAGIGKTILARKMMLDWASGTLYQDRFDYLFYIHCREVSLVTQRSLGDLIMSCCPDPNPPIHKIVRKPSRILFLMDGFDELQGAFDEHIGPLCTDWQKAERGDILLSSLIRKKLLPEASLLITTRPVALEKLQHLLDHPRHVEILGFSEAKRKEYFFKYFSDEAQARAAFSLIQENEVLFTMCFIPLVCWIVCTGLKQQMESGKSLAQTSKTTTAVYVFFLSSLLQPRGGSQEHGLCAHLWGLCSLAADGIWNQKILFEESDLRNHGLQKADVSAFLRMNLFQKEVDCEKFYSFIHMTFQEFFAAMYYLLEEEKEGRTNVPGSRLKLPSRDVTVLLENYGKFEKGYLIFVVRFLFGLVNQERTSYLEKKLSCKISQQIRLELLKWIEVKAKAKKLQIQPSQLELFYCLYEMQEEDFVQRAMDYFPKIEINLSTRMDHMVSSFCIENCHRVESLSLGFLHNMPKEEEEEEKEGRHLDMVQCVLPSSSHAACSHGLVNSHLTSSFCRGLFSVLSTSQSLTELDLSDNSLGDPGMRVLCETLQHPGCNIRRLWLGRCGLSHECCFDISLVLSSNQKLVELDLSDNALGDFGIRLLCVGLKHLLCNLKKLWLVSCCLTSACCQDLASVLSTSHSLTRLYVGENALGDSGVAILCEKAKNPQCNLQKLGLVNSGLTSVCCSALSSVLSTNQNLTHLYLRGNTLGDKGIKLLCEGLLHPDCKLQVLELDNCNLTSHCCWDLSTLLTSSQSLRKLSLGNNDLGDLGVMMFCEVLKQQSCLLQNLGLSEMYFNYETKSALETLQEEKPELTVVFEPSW
row,EC50,SMILES
1,1230 nM,"Oc1cc(C(F)(F)F)ccc1-c1nnc(N2CCC(O)(C(F)(F)F)C2)c2ncccc12 (racemic) [Example 27, (R and S)-1-(5-(2-hydroxy-4-(trifluoromethyl)phenyl)pyrido [2,3-d]pyridazin-8-yl)-3-(trifluoromethyl)pyrrolidin-3-ol]"
2,447 nM,"Oc1cc(C(F)(F)F)ccc1-c1nnc(N2CCC(O)(C(F)F)C2)c2ncccc12 (racemic) [Example 28, (R and S)-3-(difluoromethyl)-1-(5-(2-hydroxy-4-(trifluoromethyl)phenyl)pyrido [2,3-d]pyridazin-8-yl)pyrrolidin-3-ol]"
3,353 nM,"Oc1cc(C(F)(F)F)ccc1-c1nnc(N2CCC3(CCCO3)C2)c2ncccc12 (racemic) [Example 29, (R and S)-2-(8-(1-oxa-7-azaspiro[4.4]nonan-7-yl)pyrido[2,3-d]pyridazin-5-yl)-5-(trifluoromethyl)phenol]"
4,1600 nM,"Oc1cc(C(F)(F)F)ccc1-c1nnc(N2CCC(O)(c3ccccc3)C2)c2ncccc12 (racemic) [Example 38, (R and S)-1-(5-(2-hydroxy-4-(trifluoromethyl)phenyl)pyrido [2,3-d]pyridazin-8-yl)-3-phenylpyrrolidin-3-ol]"
5,482 nM,"Oc1cc(C(F)(F)F)ccc1-c1nnc(N2CC(O)C(F)(F)C2)c2ncccc12 (racemic) [Example 43, (R and S)-4,4-difluoro-1-(5-(2-hydroxy-4-(trifluoromethyl)phenyl)pyrido [2,3-d]pyridazin-8-yl)pyrrolidin-3-ol]"
6,591 nM,"Oc1cc(C(F)(F)F)ccc1-c1nnc(N2CC(O)C3(CC3)C2)c2ncccc12 (racemic) [Example 44, (R and S)-5-(5-(2-hydroxy-4-(trifluoromethyl)phenyl)pyrido [2,3-d]pyridazin-8-yl)-5-azaspiro[2.4]heptan-7-ol]"
7,1180 nM,"Oc1cc(C(F)(F)F)ccc1-c1nnc(N2CCC(O)(C3CC3)C2)c2ncccc12 (racemic) [Example 45, (R and S)-3-cyclopropyl-1-(5-(2-hydroxy-4-(trifluoromethyl)phenyl)pyrido [2,3-d]pyridazin-8-yl)pyrrolidin-3-ol]"
8,831 nM,"CN(C)CC1(O)CCN(c2nnc(-c3ccc(C(F)(F)F)cc3O)c3cccnc23)C1 (racemic) [Example 46, (R and S)-3-((dimethylamino)methyl)-1-(5-(2-hydroxy-4-(trifluoromethyl)phenyl)pyrido [2,3-d]pyridazin-8-yl)pyrrolidin-3-ol]"
9,494 nM,"CCC1(O)CCN(c2nnc(-c3ccc(C(F)(F)F)cc3O)c3cccnc23)C1 (racemic) [Example 47, (R and S)-3-ethyl-1-(5-(2-hydroxy-4-(trifluoromethyl)phenyl)pyrido [2,3-d]pyridazin-8-yl)pyrrolidin-3-ol]"
10,411 nM,"CC1(CO)CCN(c2nnc(-c3ccc(C(F)(F)F)cc3O)c3cccnc23)C1 (racemic) [Example 48, (R and S)-2-(8-(3-(hydroxymethyl)-3-methylpyrrolidin-1-yl)pyrido[2,3-d]pyridazin-5-yl)-5-(trifluoromethyl)phenol]"
11,356 nM,"C[C@]1(O)CCN(c2nnc(-c3ccc(C(F)(F)F)cc3O)c3cnccc23)C1 (single isomer, unassigned) [Example 1]"
12,49 nM,"C[C@]1(O)CCN(c2nnc(-c3ccc(C(F)(F)F)cc3O)c3ccncc23)C1 (single isomer, unassigned) [Example 2]"
13,70 nM,"C[C@@H]1CN(c2nnc(-c3ccc(C(F)(F)F)cc3O)c3ccncc23)C[C@H](C)[C@]1(C)O (single isomer, unassigned) [Example 16]"
14,23 nM,"C[C@@H]1CN(c2nnc(-c3ccc(C(F)(F)F)cc3O)c3ccncc23)C[C@H](C)[C@H]1O (single isomer, unassigned) [Example 18]"
15,33 nM,"Cc1ccc2c(-c3ccc(C(F)(F)F)cc3O)nnc(N3C[C@@H](C)O[C@@H](C)C3)c2c1 (single isomer, unassigned) [Example 20, 2-(4-((cis)-2,6-dimethylmorpholino)-6-methylphthalazin-1-yl)-5-(trifluoromethyl)phenol]"
16,65 nM,"CC1CN(c2nnc(-c3ccc(C(F)(F)F)cc3O)c3cccnc23)CC(CO)O1 (single isomer, unassigned) [Example 51, 2-(8-((2R,6R or 2S,6S)-2-(hydroxymethyl)-6-methylmorpholino)pyrido[2,3-d]pyridazin-5-yl)-5-(trifluoromethyl) phenol]"
17,74 nM,"CC1CN(c2nnc(-c3ccc(C(F)(F)F)cc3O)c3cccnc23)CC(CO)O1 (single isomer, unassigned) [Example 52, 2-(8-((2S,6S or 2R,6R)-2-(hydroxy-methyl)-6-methyl-morpholino)pyrido[2,3-d]pyridazin-5-yl)-5-(trifluoro-methyl)phenol]"
18,891 nM,"C[C@@H]1CN(c2nnc(-c3ccc(C(F)(F)F)cc3OC(F)F)c3cccnc23)C[C@H](C)O1 [Example 3, (cis)-4-(5-(2-(difluoromethoxy)-4-(trifluoromethyl)phenyl)pyrido[2,3-d]pyridazin-8-yl)-2,6-dimethylmorpholine]"
19,82 nM,"C[C@@H]1CN(c2nnc(-c3ccc(C(F)(F)F)cc3O)c3ccncc23)C[C@H](C)O1 [Example 4, 2-(4-((cis)-2,6-dimethylmorpholino)pyrido[3,4-d]pyridazin-1-yl)-5-(trifluoromethyl)phenol]"
20,556 nM,"C[C@@H]1CN(c2nnc(-c3ccc(C(F)(F)F)cc3O)c3cnccc23)C[C@H](C)O1 [Example 5, 2-(1-((cis)-2,6-dimethylmorpholino)pyrido[3,4-d]pyridazin-4-yl)-5-(trifluoromethyl)phenol]"
21,1850 nM,"C[C@@H]1CN(c2nnc(-c3ccc(C(F)(F)F)cc3O)c3ncccc23)C[C@H](C)O1 [Example 6, 2-(5-((cis)-2,6-dimethylmorpholino)pyrido[2,3-d]pyridazin-8-yl)-5-(trifluoromethyl)phenol]"
22,570 nM,"C[C@@H]1CN(c2nnc(-c3ccc(C(F)(F)F)cc3OC(F)F)c3ccncc23)C[C@H](C)O1 [Example 7, (cis)-4-(1-(2-(difluoromethoxy)-4-(trifluoromethyl)phenyl)pyrido[3,4-d]pyridazin-4-yl)-2,6-dimethylmorpholine]"
23,515 nM,"C[C@@H]1CN(c2nnc(-c3ccc(C(F)(F)F)cc3O)c3ccnnc23)C[C@H](C)O1 [Example 8, 2-(8-((cis)-2,6-dimethylmorpholino)pyridazino[4,5-c]pyridazin-5-yl)-5-(trifluoromethyl)phenol]"
24,80 nM,"C[C@@H]1CN(c2nnc(-c3ccc(C(F)(F)F)cc3O)c3cnncc23)C[C@H](C)O1 [Example 9, 2-(4-((cis)-2,6-dimethylmorpholino)pyridazino[4,5-d]pyridazin-1-yl)-5-(trifluoromethyl)phenol]"
25,60 nM,"Cc1ccc2c(-c3ccc(C(F)(F)F)cc3O)nnc(N3CC[C@](C)(O)C3)c2n1 [Example 10, (S)-1-(5-(2-hydroxy-4-(trifluoromethyl)phenyl)-2-methylpyrido[2,3-d]pyridazin-8-yl)-3-methylpyrrolidin-3-ol]"
26,750 nM,"C[C@@H]1CN(c2nnc(-c3ccc4occc4c3)c3ccncc23)C[C@H](C)O1 [Example 11, (cis)-4-(1-(benzofuran-5-yl)pyrido[3,4-d]pyridazin-4-yl)-2,6-dimethylmorpholine]"
